Values quoted from earlier work as cited in patent US8916340B2, “Method for identifying and validating dominant T helper cell epitopes using an HLA-DM-assisted class II binding assay” (The John Hopkins University, priority 2006, dated 2014).

Biological target: HLA-DR1 (Homo sapiens, UniProt P01903+P01911)
Conditions: short-lived, DM-sensitive complex of peptide with HLA-DR1

Chain of HLA-DR1 (P01903 26-216, other chains not shown): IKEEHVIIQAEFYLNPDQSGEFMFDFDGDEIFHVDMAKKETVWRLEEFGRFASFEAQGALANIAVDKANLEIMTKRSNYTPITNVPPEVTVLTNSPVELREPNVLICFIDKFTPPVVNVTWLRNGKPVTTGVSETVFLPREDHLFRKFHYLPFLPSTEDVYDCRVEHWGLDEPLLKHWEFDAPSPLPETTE

PKAVKQNTLKLAT [HAy308A]
t1/2 of complex with HLA-DR1: 34 min
